Peptide text beside a SMILES is read from it. * marks the point of attachment. Cbz = O=C(OCc1ccccc1)*
Assays:
RAW264.7 = assay: Antiinflammatory activity against mouse RAW264.7 cells assessed as inhibition of LPS-induced nitric oxide production at 10 uM after 24 hrs by Griess assay relative to control; assay type: functional; details: RAW264.7, 24 h
A549 = assay: Antiproliferative activity against human A549 cells at 10 uM after 24 hrs by MTS assay relative to control; assay type: functional; details: A549, 24 h
Homo sapiens = assay: Inhibition of LPS-induced NF-kappaB (unknown origin) transactivation expressed in human SW480 cells at 10 uM administered 1 hr after LPS stimulation measured after 6 hrs by luciferase reporter gene assay relative to control; assay type: cell-based
HepG2 = assay: Antiproliferative activity against human HepG2 cells at 10 uM after 24 hrs by MTS assay relative to control; assay type: functional; details: HepG2, 24 h
[1] = molecular target: T1, Tyrosinase (Homo sapiens) (UniProt P14679); details: at 10 µM;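 also: tyrosinase of unspecified origin acting on L-tyrosine, compound preincubated with enzyme for 15 min before adding substrate, inhibition expressed versus control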
T1 sequence (whole entry): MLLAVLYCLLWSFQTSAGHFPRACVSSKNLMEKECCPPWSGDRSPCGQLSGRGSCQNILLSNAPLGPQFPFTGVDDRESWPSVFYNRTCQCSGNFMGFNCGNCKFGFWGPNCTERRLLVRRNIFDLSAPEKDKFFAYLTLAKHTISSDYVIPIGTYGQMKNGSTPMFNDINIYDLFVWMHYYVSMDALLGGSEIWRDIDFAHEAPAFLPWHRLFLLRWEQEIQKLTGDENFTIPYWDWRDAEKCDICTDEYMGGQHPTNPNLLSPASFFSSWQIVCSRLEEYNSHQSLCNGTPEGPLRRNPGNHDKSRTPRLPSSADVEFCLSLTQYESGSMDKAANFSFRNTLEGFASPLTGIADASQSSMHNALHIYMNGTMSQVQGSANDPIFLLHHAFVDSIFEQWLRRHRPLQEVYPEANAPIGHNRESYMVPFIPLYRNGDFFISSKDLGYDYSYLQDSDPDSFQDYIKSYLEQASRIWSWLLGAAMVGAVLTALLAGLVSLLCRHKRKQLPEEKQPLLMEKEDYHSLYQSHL
Description: Inhibition of tyrosinase (unknown origin) using L-tyrosine as substrate at 10 uM preincubated for 15 mins followed by substrate addition relative to control

[2] = molecular target: T2, Tyrosine-protein phosphatase non-receptor type 1 (Homo sapiens) (UniProt P18031); details: at 10 µM;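 also: recombinant enzyme assay with pNPP substrate, inhibition read after 30 min versus untreated control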
T2 sequence (whole entry): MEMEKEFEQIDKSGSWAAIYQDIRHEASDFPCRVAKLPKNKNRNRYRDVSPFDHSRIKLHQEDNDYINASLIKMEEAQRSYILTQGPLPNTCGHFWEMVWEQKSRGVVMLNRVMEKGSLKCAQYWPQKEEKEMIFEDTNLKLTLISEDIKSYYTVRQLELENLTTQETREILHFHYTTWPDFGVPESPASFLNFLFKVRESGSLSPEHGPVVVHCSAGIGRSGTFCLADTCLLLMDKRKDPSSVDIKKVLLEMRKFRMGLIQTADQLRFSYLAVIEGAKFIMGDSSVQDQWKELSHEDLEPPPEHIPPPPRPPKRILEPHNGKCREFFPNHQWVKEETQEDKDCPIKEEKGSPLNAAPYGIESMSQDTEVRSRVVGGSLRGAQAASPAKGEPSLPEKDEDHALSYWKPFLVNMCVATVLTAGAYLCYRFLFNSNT
Description: Inhibition of recombinant human PTP1B using pNPP as substrate at 10 uM after 30 mins relative to control

SW480 = assay: Antiproliferative activity against human SW480 cells at 10 uM after 24 hrs by MTS assay relative to control; assay type: functional; details: SW480, 24 h
MCF7 = assay: Antiproliferative activity against human MCF7 cells at 10 uM after 24 hrs by MTS assay relative to control; assay type: functional; details: MCF7, 24 h

CC(C)=CCc1cc(C[C@@H](O)C(=O)c2ccc(O)cc2O)ccc1O
inhibition at 10 µM (RAW264.7): 7.1%
inhibition at 10 µM (A549): 6.1%
inhibition (Homo sapiens): 23%
inhibition at 10 µM (HepG2): 7.2%
inhibition [1]: 10.3%
inhibition [2]: 0.2%
inhibition at 10 µM (SW480): 4.2%
inhibition at 10 µM (MCF7): 29.5%

O=C1C[C@@H](c2ccc(O)cc2)Oc2cc(O)cc(O)c21 [NARINGENIN]
inhibition at 10 µM (RAW264.7): 0%
inhibition at 10 µM (A549): 0.3%
inhibition (Homo sapiens): 0%
inhibition at 10 µM (HepG2): 34.5%
inhibition [1]: 2.2%
inhibition [2]: 4.1%
inhibition at 10 µM (SW480): 0%
inhibition at 10 µM (MCF7): 16.8%

CC1(C)C=Cc2c(ccc3c2OC[C@H]2c4ccc(O)cc4O[C@@H]32)O1 [SHINPTEROCARPIN]
inhibition at 10 µM (RAW264.7): 4.1%
inhibition at 10 µM (A549): 2.2%
inhibition (Homo sapiens): 0%
inhibition at 10 µM (HepG2): 65%
inhibition [1]: 11.2%
inhibition [2]: 13.3%
inhibition at 10 µM (SW480): 0%
inhibition at 10 µM (MCF7): 14.4%

CC1(C)C=Cc2c(ccc3cc(-c4ccc(O)cc4O)oc23)O1
inhibition at 10 µM (RAW264.7): 14.2%
inhibition at 10 µM (A549): 0%
inhibition (Homo sapiens): 17%
inhibition at 10 µM (HepG2): 12.3%
inhibition [1]: 66.9%
inhibition [2]: 73.1%
inhibition at 10 µM (SW480): 27.6%
inhibition at 10 µM (MCF7): 20.4%

CC1(C)C=Cc2c(cc(O)c3c(=O)c(-c4ccc(O)cc4O)coc23)O1
inhibition at 10 µM (RAW264.7): 5.6%
inhibition at 10 µM (A549): 4.3%
inhibition (Homo sapiens): 0%
inhibition at 10 µM (HepG2): 12.7%
inhibition [1]: 28.7%
inhibition [2]: 57.6%
inhibition at 10 µM (SW480): 29.6%
inhibition at 10 µM (MCF7): 12.7%

CC1(C)C=Cc2c(ccc3cc(-c4ccc(O)cc4O)c(=O)oc23)O1 [KANZONOL W]
inhibition at 10 µM (RAW264.7): 18.9%
inhibition at 10 µM (A549): 3.7%
inhibition (Homo sapiens): 4.5%
inhibition at 10 µM (HepG2): 32.7%
inhibition [1]: 7.6%
inhibition [2]: 16.2%
inhibition at 10 µM (SW480): 0%
inhibition at 10 µM (MCF7): 47.3%

CCc1c2c(nc3ccc(OC(=O)N4CCC(N5CCCCC5)CC4)cc13)-c1cc3c(c(=O)n1C2)COC(=O)[C@]3(O)CC [IRINOTECAN]
inhibition at 10 µM (A549): 91.8%
inhibition at 10 µM (HepG2): 98.9%
inhibition at 10 µM (SW480): 95%
inhibition at 10 µM (MCF7): 93.6%

CC(C)=CCc1c(O)cc(O)c2c(=O)c(-c3ccc(O)cc3)coc12
inhibition at 10 µM (RAW264.7): 1.5%
inhibition at 10 µM (A549): 0%
inhibition (Homo sapiens): 7.1%
inhibition at 10 µM (HepG2): 32.4%
inhibition [1]: 1.6%
inhibition [2]: 10.6%
inhibition at 10 µM (SW480): 21.2%
inhibition at 10 µM (MCF7): 19.7%

CC1(C)C=Cc2c(ccc(-c3coc4cc(O)ccc4c3=O)c2O)O1 [GLABRONE]
inhibition at 10 µM (RAW264.7): 42%
inhibition at 10 µM (A549): 0%
inhibition (Homo sapiens): 6.4%
inhibition at 10 µM (HepG2): 29.2%
inhibition [1]: 9.7%
inhibition [2]: 0.3%
inhibition at 10 µM (SW480): 45.4%
inhibition at 10 µM (MCF7): 36.1%

CC1(C)C=Cc2cc([C@@H]3CC(=O)c4ccc5c(c4O3)C=CC(C)(C)O5)ccc2O1 [XAMBIOONA]
inhibition at 10 µM (RAW264.7): 6.9%
inhibition at 10 µM (A549): 10.9%
inhibition (Homo sapiens): 0%
inhibition at 10 µM (HepG2): 0%
inhibition [1]: 0%
inhibition [2]: 76.9%
inhibition at 10 µM (SW480): 7.9%
inhibition at 10 µM (MCF7): 0%

CC(C)=CCc1cc([C@H]2Oc3cc(O)ccc3C[C@H]2O)ccc1O
inhibition at 10 µM (RAW264.7): 1.8%
inhibition at 10 µM (A549): 13.3%
inhibition (Homo sapiens): 9.8%
inhibition at 10 µM (HepG2): 7.3%
inhibition [1]: 14.3%
inhibition [2]: 10.4%
inhibition at 10 µM (SW480): 32.7%
inhibition at 10 µM (MCF7): 18.6%

O=C1C[C@@H](c2ccc(O)cc2)Oc2cc(O)ccc21 [LIQUIRTIGENIN]
inhibition at 10 µM (RAW264.7): 2.8%
inhibition at 10 µM (A549): 0%
inhibition (Homo sapiens): 0%
inhibition at 10 µM (HepG2): 7%
inhibition [1]: 4.6%
inhibition [2]: 9.8%
inhibition at 10 µM (SW480): 7.5%
inhibition at 10 µM (MCF7): 7.7%

CC1(C)C=Cc2c(ccc([C@@H]3COc4c(ccc5c4C=CC(C)(C)O5)C3)c2O)O1 [HISPAGLABRIDIN B]
inhibition at 10 µM (RAW264.7): 10.5%
inhibition at 10 µM (A549): 34.3%
inhibition (Homo sapiens): 0%
inhibition at 10 µM (HepG2): 45.9%
inhibition [1]: 0%
inhibition [2]: 42%
inhibition at 10 µM (SW480): 47.9%
inhibition at 10 µM (MCF7): 38.3%

C[C@H]1[C@H](C)CC[C@]2(C(=O)O)CC[C@]3(C)C(=CC[C@@H]4[C@@]5(C)CC[C@H](O)C(C)(C)[C@@H]5CC[C@]43C)[C@H]12
inhibition [2]: 82.1%

COc1cc(/C=C/C(=O)CC(=O)/C=C/c2ccc(O)c(OC)c2)ccc1O [CURCUMIN]
inhibition at 10 µM (RAW264.7): 70%

CC(C)=CCc1c(O)ccc2c1OC[C@@H](c1ccc3c(c1O)C=CC(C)(C)O3)C2
inhibition at 10 µM (RAW264.7): 3.6%
inhibition at 10 µM (A549): 10.2%
inhibition (Homo sapiens): 40.2%
inhibition at 10 µM (HepG2): 15.9%
inhibition [1]: 12.9%
inhibition [2]: 5.5%
inhibition at 10 µM (SW480): 20.2%
inhibition at 10 µM (MCF7): 60.9%

CC(C)=CCc1cc(C[C@@H](O)C(=O)c2ccc(O)c(CC=C(C)C)c2O)ccc1O
inhibition at 10 µM (RAW264.7): 4.1%
inhibition at 10 µM (A549): 7.5%
inhibition (Homo sapiens): 33.4%
inhibition at 10 µM (HepG2): 75.2%
inhibition [1]: 0%
inhibition [2]: 37.7%
inhibition at 10 µM (SW480): 72%
inhibition at 10 µM (MCF7): 82.1%

CC(C)=CCc1cc(C[C@@H](O)C(=O)c2cc(CC=C(C)C)c(O)cc2O)ccc1O
inhibition at 10 µM (RAW264.7): 0%
inhibition at 10 µM (A549): 46.1%
inhibition (Homo sapiens): 24.3%
inhibition at 10 µM (HepG2): 5.8%
inhibition [1]: 8.3%
inhibition [2]: 27%
inhibition at 10 µM (SW480): 24.6%
inhibition at 10 µM (MCF7): 42.1%

CC1(C)C=Cc2c(ccc3c2OCc2c-3oc3cc(O)ccc23)O1
inhibition at 10 µM (RAW264.7): 7.4%
inhibition at 10 µM (A549): 0%
inhibition (Homo sapiens): 1.4%
inhibition at 10 µM (HepG2): 0%
inhibition [1]: 26.3%
inhibition [2]: 18.1%
inhibition at 10 µM (SW480): 1.1%
inhibition at 10 µM (MCF7): 33.7%

CC1(C)C=Cc2c(ccc3c2OCC(c2ccc(O)cc2O)=C3)O1
inhibition at 10 µM (RAW264.7): 21.4%
inhibition at 10 µM (A549): 2.1%
inhibition (Homo sapiens): 13.7%
inhibition at 10 µM (HepG2): 0%
inhibition [1]: 50.9%
inhibition [2]: 6.1%
inhibition at 10 µM (SW480): 0%
inhibition at 10 µM (MCF7): 1.9%

O=C(/C=C/c1ccc(O)cc1)c1ccc(O)cc1O [ISOLIQUIRITIGENIN]
inhibition at 10 µM (RAW264.7): 21%
inhibition at 10 µM (A549): 8.3%
inhibition (Homo sapiens): 17.1%
inhibition at 10 µM (HepG2): 6.5%
inhibition [1]: 15.3%
inhibition [2]: 14.2%
inhibition at 10 µM (SW480): 29.1%
inhibition at 10 µM (MCF7): 65.6%

COc1ccc([C@@H]2COc3c(ccc(O)c3CC=C(C)C)C2)c(O)c1O
inhibition at 10 µM (RAW264.7): 33%
inhibition at 10 µM (A549): 15.5%
inhibition (Homo sapiens): 8.4%
inhibition at 10 µM (HepG2): 38%
inhibition [1]: 20.1%
inhibition [2]: 80%
inhibition at 10 µM (SW480): 0.2%
inhibition at 10 µM (MCF7): 30.4%

COc1ccc2c(c1)O[C@H]1c3ccc(O)c(CC=C(C)C)c3OC[C@@H]21 [LICOAGROCARPIN]
inhibition at 10 µM (RAW264.7): 16.7%
inhibition at 10 µM (A549): 37.3%
inhibition (Homo sapiens): 0%
inhibition at 10 µM (HepG2): 8.3%
inhibition [1]: 0%
inhibition [2]: 4.9%
inhibition at 10 µM (SW480): 18.2%
inhibition at 10 µM (MCF7): 52.9%

COc1c(CC=C(C)C)c(O)cc2c1C[C@H](c1ccc(O)cc1O)CO2
inhibition [1]: 91.1%

CC(C)C[C@@H](C=O)NC(=O)[C@H](CC(C)C)NC(=O)[C@H](CC(C)C)NC(=O)OCc1ccccc1 (Cbz-Leu-Leu-Leu-aldehyde)
inhibition (Homo sapiens): 79.2%

Reference: ChEMBL document CHEMBL4052601, “Glycybridins A-K, Bioactive Phenolic Compounds from Glycyrrhiza glabra” (J Nat Prod, 2017)
